Laboratory results taken from patent US20220331219A1, “METHODS AND COMPOSITIONS FOR PROVIDING SKIN CARE BENEFITS” (DANISCO US INC., priority 2019, published 2022).
Marks after values point to notes of the source that are not given here. Blank lines part the entries; values can stand above or below the compound they belong to.

Tests used:
[1] = tested on: Phenion® Full-Thickness (FT) Skin Model; experiment: Lipidomic profile of skin model after topical treatment (LC-MS); assay type: cell-based, human
[2] = tested on: female Caucasian subjects with dry skin; experiment: Skin transepidermal water loss (TEWL) after topical cream application (skin barrier function); assay type: in vivo, human; details: for Δ TEWL MVL (MVL cream zone − placebo cream zone): normalized to control and placebo, 1% MVL cream pH 5.5; for Δ TEWL MVL (Dx-D0): normalized to control, placebo and baseline D0
Experimental: Mevalonolactone was obtained and purified as described herein and formulated in a standard cosmetic base, at 1% of total composition by weight, resulting in cosmetic a composition (such as but not limited to a cosmetic cream). […] The base cream formula can be any formula well known to one skilled in the art.
Two separated studies were performed. Study 1 consisted of measuring the skin transepidermal water loss after topical application of the cosmetic creams (a cream with 1% MVL of total composition by weight called “MVL cream” and the control cream which was the same cream without MVL called “placebo”) formulated at pH=5.5, the skin physiological pH.
The cosmetic formulations comprising MVL as the active ingredient and the placebo treatment were applied to 6 female Caucasian subjects with dry skin (electrical capacitance<50 A.U.) by topical application.
For 2 weeks, each subject applied the MVL containing formulation and placebo formulation according to randomization. twice a day (in the morning and in the evening), under normal conditions of use (on clean skin, by slight massage until complete penetration), on delimited zones on their forearms.
Evaluation of the efficacy of the treatment was conducted by measuring the evolution of the transepidermal water loss of the skin induced by the cosmetic compositions on the skin. Water loss of the skin was determined by measurement of Trans Epidermal Water Loss (T.E.W.L. g/m^2/h) which is a non-invasive method to assess the integrity of the stratum corneum barrier function, by quantifying the water exchanges between the skin and the environment (Loden M. et al., 1992, British J of Dermatol 1992; 126: 137-141). Damage of the stratum corneum results in an increase in the T.E.W.L., leading to a more pervious skin. This method enables to assess and compare the protective effect of cosmetic investigational compositions on the cutaneous barrier between themselves, after repeated applications. and in comparison, with a control area (non-treated) and with values obtained before any products application.
In this study, the TEWL (g/m^2/h) was assessed at 5 different time points (Day 0 (baseline before product application). […]

[3] = tested on: reconstructed human epidermis (RHE); experiment: Caffeine diffusion test ([14C]-caffeine diffusion, barrier function); assay type: cell-based; details: for Barrier function (% control) / [14C]-caffeine diffusion, % control / [14C]-caffeine diffusion, Mean (cpm): systemic, 7 days
Experimental: A test referred to as “caffeine diffusion test” was performed, which consists of the measurement of the effect of compounds mevalonolactone (MVL) on the skin barrier reinforcement. It is one method to measure skin barrier function (strength) as when the skin barrier has been strengthened, the amount of penetrating tracer molecules decreases (i.e. if skin is damaged more, the easier the tracer penetrates the skin). In this study, the effect of mevalonolactone, was assessed on [^14C]-caffeine diffusion through reconstructed human epidermis (RHE) under basal condition, in order to evaluate the skin barrier function. Caffeine diffusion is inversely proportional to barrier function. RHE (RHE, 0-day-old, Bioalternatives reference: EPI-Ba, batch n° 01015-515) were cultured under the following conditions: 37° C., 5% CO2, and the culture media was the Bioaltematives maintenance medium. The tested MVL concentration were 0.001%, 0.005% and 0.01% by weight of assay medium, in systemic way (added to the culture media).
RHE at day 0 were placed at the air/liquid interface in culture medium containing or not (control) the test compounds, their association or the reference (vitamin C at 200 μg/ml) (systemic application). RHE were then, incubated for 7 days with treatment renewals at day 3 and day 5. All experimental conditions were performed in n=3.
At the end of incubation (D7), radioactive caffeine ([^14C]-caffeine) was applied onto the surface of each epidermis. The radioactivity contained in subnatants was measured by liquid scintillation according to the following kinetic: 30 minutes, 1 and 2 hours.
Raw data were analyzed using Microsoft Excel® software and GraphPad PRISM® software. The inter-group comparisons were performed by an unpaired Student's t-test. The statistical analysis can be interpreted if n≥5, however for n<5 the statistical values are for information only. Formulas used in this report:
Standard error of the mean: sem=Sd/√n; Barrier function: […]

[4] = MVL*H2O solubility in water (equilibrium DS content); assay type: physicochemical; details: calculated to purity 100
Experimental: Solubility is one property to characterize a crystalline compound. Crystallization is possible only above solubility concentration in supersaturated syrups. Solubility determines minimal DS concentration for the crystallization at given temperatures. The solubility is determined by standard methods like analyzing the equilibrium concentration from crystal suspension.
Equilibrium DS contents were measured and calculated between 0-20° C. range (Table 14).

[5] = 13% MVL solution in DPBS, 20 μl topical, 24 hours, vs control without MVL
[6] = MVL treated skin tissue, 24 hours

Structure (SMILES): C[C@@]1(O)CCOC(=O)C1 [MVL, (R)-3-Hydroxy-3-methyl-δ-valerolactone]
- MVL treatment effect: CE-Cholesterol Esters [1, 5]: +
- MVL treatment effect: CL-CardioLipin* [1, 5]: −
- MVL treatment effect: DAG-Diacylglycerol [1, 5]: −
- MVL treatment effect: HexCer-Hexosylceramide* [1, 5]: +
- MVL treatment effect: LPE* [1, 5]: −
- MVL treatment effect: LPE-0 [1, 5]: −
- MVL treatment effect: LPG-lyso-PG [1, 5]: −
- MVL treatment effect: PA-Phosphatidate (PA and LPA) [1, 5]: +
- MVL treatment effect: PC Phosphatidylcholine (PC 15:1;0_16:0;0*) [1, 5]: +
- MVL treatment effect: PC-O- Phosphatidylcholine-ether (PC-O 16:1;0/18:2;0, plasmalogen) [1, 5]: +
- MVL treatment effect: PE (species listed, *) [1, 5]: −
- MVL treatment effect: PE O-16:1;0/18:1;0* [1, 5]: −
- MVL treatment effect: PI-Phosphatidylinositol [1, 5]: −
- MVL treatment effect: Phosphatidylglycerol (PG species listed, *) [1, 5]: −
- MVL treatment effect: TAG-Triacylglycerol (TAG 47:2;0) [1, 5]: +
- Cholesterol level (in words) [1, 6]: unchanged
- PG/CL versus control samples (in words) [1, 6]: significant decrease
- ceramides level (in words) [1, 6]: unchanged
- cholesterol esters (CE) versus control samples (in words) [1, 6]: significant increase
- diacylglycerol (DAG) versus control samples (in words) [1, 6]: significant decrease
- hexosylceramide (HexCer) versus control samples (in words) [1, 6]: significant increase
- phosphatidate (PA) versus control samples (in words) [1, 6]: significant increase
- phosphatidylcholine-ether (PC-O) versus control samples (in words) [1, 6]: significant increase
- phosphatidylcholines (PC) versus control samples (in words) [1, 6]: significant increase
- phosphatidylethanolamine-ethers (LPE, LPE-O, PE-O) versus control samples (in words) [1, 6]: significant decrease
- phosphatidylinositol versus control samples (in words) [1, 6]: significant decrease
- phosphatidylserine (PS) level (in words) [1, 6]: unchanged
- ratio cholesterol/chol sulfate (in words) [1, 6]: unchanged
- sphingomyelin (SM) level (in words) [1, 6]: unchanged
- triacylglycerol (TAG) versus control samples (in words) [1, 6]: significant increase
- Δ TEWL MVL (MVL cream zone − placebo cream zone) ([2]; D0): 2.06 g/m²/h
- Δ TEWL MVL (Dx-D0) ([2]; D1-D0): −0.27
- Δ TEWL MVL (MVL cream zone − placebo cream zone) ([2]; D1): 1.79 g/m²/h
- Δ TEWL MVL (Dx-D0) ([2]; D3-D0): −0.74
- Δ TEWL MVL (MVL cream zone − placebo cream zone) ([2]; D3): 1.32 g/m²/h
- Δ TEWL MVL (Dx-D0) ([2]; D7-D0): −1.11
- Δ TEWL MVL (MVL cream zone − placebo cream zone) ([2]; D7): 0.95 g/m²/h
- Δ TEWL MVL (Dx-D0) ([2]; D15-D0): −1.04
- Δ TEWL MVL (MVL cream zone − placebo cream zone) ([2]; D15): 1.02 g/m²/h
- skin trans epidermal water loss (in words) ([2]; topically applied, after 2 weeks of repeated application): decreases the skin trans epidermal water loss
- Barrier function (% control) ([3]; 0.001%, 30 min): 128 % control
- [14C]-caffeine diffusion, % control ([3]; 0.001%, 30 min): 77 % control
- [14C]-caffeine diffusion, Mean (cpm) ([3]; 0.001%, 30 min): 14907 cpm
- Barrier function (% control) ([3]; 0.001%, 1 hour): 106 % control
- [14C]-caffeine diffusion, % control ([3]; 0.001%, 1 hour): 94 % control
- [14C]-caffeine diffusion, Mean (cpm) ([3]; 0.001%, 1 hour): 48423 cpm
- Barrier function (% control) ([3]; 0.001%, 2 hours): 99 % control
- [14C]-caffeine diffusion, % control ([3]; 0.001%, 2 hours): 101 % control
- [14C]-caffeine diffusion, Mean (cpm) ([3]; 0.001%, 2 hours): 117165 cpm
- Barrier function (% control) ([3]; 0.005%, 30 min): 113 % control
- [14C]-caffeine diffusion, % control ([3]; 0.005%, 30 min): 87 % control
- [14C]-caffeine diffusion, Mean (cpm) ([3]; 0.005%, 30 min): 16927 cpm
- Barrier function (% control) ([3]; 0.005%, 1 hour): 93 % control
- [14C]-caffeine diffusion, % control ([3]; 0.005%, 1 hour): 107 % control
- [14C]-caffeine diffusion, Mean (cpm) ([3]; 0.005%, 1 hour): 55034 cpm
- Barrier function (% control) ([3]; 0.005%, 2 hours): 95 % control
- [14C]-caffeine diffusion, % control ([3]; 0.005%, 2 hours): 106 % control
- [14C]-caffeine diffusion, Mean (cpm) ([3]; 0.005%, 2 hours): 122324 cpm
- Barrier function (% control) ([3]; 0.01%, 30 min): 97 % control
- [14C]-caffeine diffusion, % control ([3]; 0.01%, 30 min): 102 % control
- [14C]-caffeine diffusion, Mean (cpm) ([3]; 0.01%, 30 min): 19700 cpm
- Barrier function (% control) ([3]; 0.01%, 1 hour): 96 % control
- [14C]-caffeine diffusion, % control ([3]; 0.01%, 1 hour): 104 % control
- [14C]-caffeine diffusion, Mean (cpm) ([3]; 0.01%, 1 hour): 53545 cpm
- Barrier function (% control) ([3]; 0.01%, 2 hours): 99 % control
- [14C]-caffeine diffusion, % control ([3]; 0.01%, 2 hours): 101 % control
- [14C]-caffeine diffusion, Mean (cpm) ([3]; 0.01%, 2 hours): 116509 cpm

Structure (SMILES): O=C1O[C@H]([C@@H](O)CO)C(O)=C1O [Vitamin C, reference compound]
- caffeine diffusion through RHE (in words) ([3]; 200 μg/ml, systemic treatment): decreased significantly
- Barrier function (% control) ([3]; 200 microg/ml, 30 min): 171** % control
- [14C]-caffeine diffusion, % control ([3]; 200 microg/ml, 30 min): 58 % control
- [14C]-caffeine diffusion, Mean (cpm) ([3]; 200 microg/ml, 30 min): 11133 cpm
- Barrier function (% control) ([3]; 200 microg/ml, 1 hour): 148** % control
- [14C]-caffeine diffusion, % control ([3]; 200 microg/ml, 1 hour): 68 % control
- [14C]-caffeine diffusion, Mean (cpm) ([3]; 200 microg/ml, 1 hour): 34839 cpm
- Barrier function (% control) ([3]; 200 microg/ml, 2 hours): 128** % control
- [14C]-caffeine diffusion, % control ([3]; 200 microg/ml, 2 hours): 79 % control
- [14C]-caffeine diffusion, Mean (cpm) ([3]; 200 microg/ml, 2 hours): 90717 cpm

- solubility ([4]; 0 °C): 43.9 % DS
- solubility ([4]; 4.8 °C): 52.3 % DS
- solubility ([4]; 9.8 °C): 61.2 % DS
- solubility ([4]; 15.0 °C): 70.6 % DS
- solubility ([4]; 20.0 °C): 79.7 % DS
Structure (SMILES): CC1(O)CCOC(=O)C1.O (stereo not shown) [MVL* H2O, Mevalonolactone monohydrate]

Structure (SMILES): C[C@@](O)(CCO)CC(=O)O [MVA, (3R)-3,5-Dihydroxy-3-methylpentanoic acid]
- cholesterol amount (in words) ([1]; MVA treated skin model): stay stable
- cholesterol/cholesterol sulfate ratio (in words) ([1]; topical MVA, exact same test condition as Example 26): decrease
- MVA treatment effect: Ratio Cholesterol/Cholesterol sulfate ([1]; topical MVA, exact same test condition as Example 26, p = 0.088): −
